Experimental data from ChEMBL document CHEMBL3259634, “Novel benzopolycyclic amines with NMDA receptor antagonist activity” (Bioorg Med Chem, 2014).
pIC50: −log10 of the molar value.

What follows are compounds tested against Glutamate NMDA receptor (assay: Antagonist activity at NMDA receptor in primary culture of rat cerebellar granule neurons assessed as inhibition of NMDA-induced intracellular calcium level by fluorescence spectrophotometric analysis).
Format: cell-based

First: NC12CC3CC(O)(CC(C1)c1ccccc13)C2
Second: NC12CC3CC(F)(CC(C1)c1ccccc13)C2
The pIC50 of the first is 0.92 log units lower: 4.79 for the first, 5.71 for the second.

Compared with `CN(C)C12CC3CC(O)(CC(C1)c1ccccc13)C2`, `CN(C)C12CC3CC(F)(CC(C1)c1ccccc13)C2` is 0.63 log units higher in pIC50: 4.15 for the first, 4.78 for the second. The second is the more potent here.

First: COC12CC3CC(N)(CC(C1)c1ccccc13)C2
Second: NC12CC3CC(C1)c1ccccc1C(C3)C2
The pIC50 of the first is 1.54 log units lower: 4.61 for the first, 6.15 for the second.

Work on `CN(C)C12CC3CC(C1)c1ccccc1C(C3)C2` yielded a pIC50 of 5.64.
